# Patent EP1487840B1 (Pfizer Italia S.r.l., priority 2002, dated 2003)
# Where a name gives a salt, the structure may show the parent alone.
# Experiments:
# physchem = details: thermodynamic from solid, room temperature; for solubility thermodynamic at 24 h: Irinotecan hydrocholoride concentration; for solubility: no time given
# Description: (§1) The pH is adjusted to the final value with NaOH 1N). An excess solid was put in glass flasks in the presence of the appropriate dissolution media and the suspensions were shaken at room temperature for 24 hours. Samples were withdrawn after 15, 30, 45, 60 min and 24 hours, filtered and analyzed by means of HPLC assay.
# [1] = pH 1.2
# Description: as §1
# [2] = relative to CPT-11; cited from earlier work
smiles,measurement,setting,value
"CCc1c2c(nc3ccc(OC(=O)N4CCC(N5CCCCC5)CC4)cc13)-c1cc3c(c(=O)n1C2)COC(=O)[C@]3(O)CC [Form b, (S) -4,11-Diethyl-3,4,12,14-tetrahydro-4-hydroxy-3,14-dioxo-1 H-pyrano[3',4':6,7]-indolizino[1,2-b]quinolin-9-yl[1,4'-bipiperidine]-1'-carboxylate hydrochloride]",solubility thermodynamic at 24 h,"physchem; deionized water, water, a = deionized water",11200 µg/mL
same,solubility,"physchem; deionized water, water, Water solubility, in water",~10000 µg/mL
same,solubility,"physchem; lactic acid buffer of CAMPTOSAR INJECTION, pH 3.5, aqueous buffer, solubility",10000 µg/mL
same,solubility thermodynamic at 24 h,"physchem; pH 1.2 buffer, pH 1.2, simulated gastric fluid, b = pH 1.2 buffer",260 µg/mL
same,solubility thermodynamic,"physchem; pH 3.5, aqueous buffer, equilibrium solubility, pH value of about 3.5",< 20000 µg/mL
"CCc1c2c(nc3ccc(OC(=O)N4CCC(N5CCCCC5)CC4)cc13)-c1cc3c(c(=O)n1C2)COC(=O)[C@]3(O)CC [Form c, (S)-4,11-Diethyl-3,4,12,14-tetrahydro-4-hydroxy-3,14=dioxo-1 H-pyrano[3',4':6,7]-indolizino[1,2-b]quinolin-9-yl [1,4'-bipiperidine]-1'-carboxylate (irinotecan) hydrochloride]",more soluble with respect to Form b,[1],2 orders of magnitude
"CCc1c2c(nc3ccc(O)cc13)-c1cc3c(c(=O)n1C2)COC(=O)[C@]3(O)CC [SN-38, 7-ethyl-10-hydroxy 20 (S) camptothecin]",more cytotoxic than CPT-11,[2],100 fold
